Assay results published in patent US20120201915A1, “THERAPEUTIC COMPOSITION” (priority 2009, published 2012).

Tested on: contact dermatitis from poison sumac
Test: Case-study: contact dermatitis from poison sumac
Assay type: in vivo, human
Details: used by the patient before Composition I
Text: In one case-study, a patient had contact dermatitis from poison sumac which was on the volar surfaces of both arms from the hand to the elbow. […] They continued application of the Composition I, TID (three daily doses), and by four days, their skin had healed.

C[C@]12CCC(=O)C=C1CC[C@@H]1[C@@H]2C(=O)C[C@@]2(C)[C@H]1CC[C@]2(O)C(=O)CO [cortisone]
relief from earlier topical treatments: without relief
